The values below come from US20260207717A1, “METHODS FOR TREATING INFANTILE-ONSET POMPE DISEASE IN PEDIATRIC PATIENTS” (Amicus Therapeutics, Inc., priority 2022, published 2026).

The nature of data set [1]: clinical. The note with it: human, in vivo. How it is done:
At 10Y7M of age, the blood of the patient was collected to gather pharmacokinetic (PK) data for their treatment that included weekly administration of 20 mg/kg ATB200 and 130 mg AT2221.
Blood sampling of the patient was conducted to gather pharmacokinetic (PK) data for their treatment that included administration of 25 mg/kg ATB200 and 195 mg AT2221 biweekly.
At 12Y5M of age, the patient has been receiving ATB200 (20 mg/kg) and AT2221 (195 mg) biweekly for 1 year. […] At this time, the PK levels of both ATB200 and AT2221 were taken from the patient.

Data set [2] can be described thus: Miglustat plasma pharmacokinetics. The class given is in vivo, human. The note with it: 130 mg to 260 mg. How it is done:
At the recommended 260 mg dose, the mean Cmax was approximately 3 mcg/mL and the mean AUC was approximately 25 mcg*hr/mL. The mean time to reach the maximum concentration ranged from 2 hours to 3 hours.

In data set [3] the target is CIMPR (Homo sapiens, UniProt P11717). Put plainly: CIMPR affinity chromatography (bound vs unbound rhGAA by GAA activity). Type of data set: binding. The source says:
Multiple batches of the rhGAA according to the disclosure were produced in shake flasks and in perfusion bioreactors using CHO cell line GA-ATB200, the product of which is referred to as “ATB200.” Weak anion exchange (“WAX”) liquid chromatography was used to fractionate ATB200 rhGAA according to terminal phosphate and sialic acid. Elution profiles were generated by eluting the ERT with increasing amount of salt. The profiles were monitored by UV (A280 nm).
To evaluate the ability of the conventional rhGAAs in MYOZYME® and LUMIZYME® to interact with the CIMPR, the two conventional rhGAA preparations were injected onto a CIMPR affinity column (which binds rhGAA having M6P groups) and the flow through collected. The bound material was eluted with a free M6 gradient. Fractions were collected in 96-well plate and GAA activity assayed by 4MU-α-glucosidase substrate. The relative amounts of unbound (flow through) and bound (M6P eluted) rhGAA were determined based on GAA activity and reported as the fraction of total enzyme. […] Indeed, only 27% of the rhGAA in MYOZYME® and 22% of the rhGAA in LUMIZYME® contained M6P that can be productive to target it to the CIMPR on muscle cells.

Data set [4] relates to pediatric IOPD patient.
The subject of data set [5] is single fibers isolated from the white gastrocnemius of Gaa KO mice. Put plainly: Single fiber analysis (LAMP1/LC3 co-immunofluorescence). Type of data set: in vivo. The source says:
FIG. 17 depicts co-immunofluorescent staining of LAMP1 (green) (see for example, “B”) and LC3 (red) (see, for example, “A”) in single fibers isolated from the white gastrocnemius of Gaa KO mice treated with a vehicle, alglucosidase alfa, or ATB200. “C” depicts clearance of autophagic debris and absence of enlarged lysosome. A minimum of 30 fibers were examined from each animal.
As a result, a significant portion of muscle fibers analyzed (36-60%) from ATB200-treated mice appeared normal or near-normal.

The subject of data set [6] is pediatric patient with infantile Pompe disease. Put plainly: Example 16: pediatric IOPD patient switched from Myozyme to ATB200/AT2221. The class given is in vivo, human. The source says:
A patient with severe infantile Pompe disease presented. The patient underwent a comprehensive physical examination, measurement of GAA enzyme activity, genetic testing of the GAA gene and muscle biopsy to establish the diagnosis.
The patient received the high-dose enzyme replacement therapy with Myozyme after diagnosis. The patient responded very poorly to therapy. Due to rapidly progressing Pompe disease and inadequate response to therapy, the patient's survival was at risk. For the patient, the opportunity arose to receive the new ATB200/AT2221 ERT via a compassionate use/Expanded Access Program (EAP).
The index patient has regular measurement of the urinary Glc4-levels since the change of the ERT to ATB200. The Glc4-levels were determined by an established method from the Duke University. The analysis of Glc4 is standardized as a butyl-4-aminobenzoate derivative using [^13C6] Glc4 as the internal standard (IS). The measurement is performed as ultra-performance liquid chromatography-tandem mass spectrometry (UPLC-MS/MS). The Glc4-values are then normalized to creatinine.
The patient presented with IOPD at 6 months and was started on the standard dose of Myozyme (20 mg/kg/bi-weekly). Due to the inadequate response to therapy, the dose was doubled just one month after the start of therapy in form of a weekly administration of Myozyme. […] But the cardiological situation deteriorated progressively.
Therefore, just three months after initiation of therapy, the dose was again doubled to 40 mg/kg/weekly, so the patient received a total of four times the standard dose. With the intensification of ERT and cardiac therapy, the patient's condition initially stabilized. Nevertheless, over the next few months, the patient's general condition steadily deteriorated, and the patient decompensated, especially respiratory.
The patient was switched from Myozyme to ATB200/AT2221 after eight months of insufficient Myozyme therapy response. The patient was […] at the time of the therapy switch. The new therapy (via EAP) was initiated with the oral administration of 30 mg premedication AT2221 (Miglustat) one hour prior to enzyme administration. ATB200 was administered at a bi-weekly interval at a dosage of 20 mg/kg. In the further course of treatment, the dosage of premedication and ERT was repeatedly adjusted and optimized (see Table 22). Some actual dosages in Table 22 (e.g., 37 mg/kg and 34.5 mg/kg at 32 and 38 months, respectively) varied from the target dose (e.g., 30 mg/kg) to avoid waste of extra material left in vials.
The Gross Motor Function Measure 66 (GMFM 66) is used to quantify a patients' motor skills. The GMFM 66 is a worldwide standardized test developed and validated for children with cerebral palsy to measure the development of gross motor function over time. During testing 66 items are examined and a score from 0 to 100 points is possible.

The subject of data set [7] is pediatric IOPD patient. The class given is in vivo, human. How it is done:
The patient, first-born of unrelated parents […]), was born at 37 weeks by an emergency delivery due to fetal heart failure. At birth, they were resuscitated and admitted to the NICU for invasive ventilatory assistance and circulation support.
Moreover, the patient presented with severe hypotonia, elevated serum CPK (1063 U/L) and BNP ([…], nv 0-100).
At 3 days of life, an extended newborn screening resulted positive for Pompe Disease (GAA activity in DBS 0.40 μM/L, nv>3). uGlc4 was elevated (71.2 mmol/mol creatinine, nv <16.3).
At 5 days of life, the patient was treated with alglucosidase alfa (Myozyme®). Simultaneously, an immunomodulation protocol with rituximab, ev immunoglobulins and methotrexate was started. In addition, an appropriate therapy for the heart failure was started (betablocker, diuretics, ACE inhibitor).
At 2.5 years of life, they started a compassionate use/EAP therapy that combined a new ERT (cipaglucosidase 30 mg/kg/week) with an enzyme stabilizer (miglustat 115 mg) (ATB200-15 Program, Amicus Therapeutics), with clinical benefit.

The mark [8] stands for this setting: age ~1 week, Myozyme double dose 40 mg/kg q2wk.
Where [9] appears, read: after new immunomodulation cycle, on Myozyme.
The mark [10] stands for this setting: worsening with high antibody titer, on Myozyme.

Broadly, the AUC is concentration integrated over time. A lower AUC goes with less exposure. In general, Cmax refers to the maximum level reached in the sampled fluid or tissue.

Like-named read-outs stand apart in the source and are kept apart here.

Chain of CIMPR (P11717 41-2491, species assumed): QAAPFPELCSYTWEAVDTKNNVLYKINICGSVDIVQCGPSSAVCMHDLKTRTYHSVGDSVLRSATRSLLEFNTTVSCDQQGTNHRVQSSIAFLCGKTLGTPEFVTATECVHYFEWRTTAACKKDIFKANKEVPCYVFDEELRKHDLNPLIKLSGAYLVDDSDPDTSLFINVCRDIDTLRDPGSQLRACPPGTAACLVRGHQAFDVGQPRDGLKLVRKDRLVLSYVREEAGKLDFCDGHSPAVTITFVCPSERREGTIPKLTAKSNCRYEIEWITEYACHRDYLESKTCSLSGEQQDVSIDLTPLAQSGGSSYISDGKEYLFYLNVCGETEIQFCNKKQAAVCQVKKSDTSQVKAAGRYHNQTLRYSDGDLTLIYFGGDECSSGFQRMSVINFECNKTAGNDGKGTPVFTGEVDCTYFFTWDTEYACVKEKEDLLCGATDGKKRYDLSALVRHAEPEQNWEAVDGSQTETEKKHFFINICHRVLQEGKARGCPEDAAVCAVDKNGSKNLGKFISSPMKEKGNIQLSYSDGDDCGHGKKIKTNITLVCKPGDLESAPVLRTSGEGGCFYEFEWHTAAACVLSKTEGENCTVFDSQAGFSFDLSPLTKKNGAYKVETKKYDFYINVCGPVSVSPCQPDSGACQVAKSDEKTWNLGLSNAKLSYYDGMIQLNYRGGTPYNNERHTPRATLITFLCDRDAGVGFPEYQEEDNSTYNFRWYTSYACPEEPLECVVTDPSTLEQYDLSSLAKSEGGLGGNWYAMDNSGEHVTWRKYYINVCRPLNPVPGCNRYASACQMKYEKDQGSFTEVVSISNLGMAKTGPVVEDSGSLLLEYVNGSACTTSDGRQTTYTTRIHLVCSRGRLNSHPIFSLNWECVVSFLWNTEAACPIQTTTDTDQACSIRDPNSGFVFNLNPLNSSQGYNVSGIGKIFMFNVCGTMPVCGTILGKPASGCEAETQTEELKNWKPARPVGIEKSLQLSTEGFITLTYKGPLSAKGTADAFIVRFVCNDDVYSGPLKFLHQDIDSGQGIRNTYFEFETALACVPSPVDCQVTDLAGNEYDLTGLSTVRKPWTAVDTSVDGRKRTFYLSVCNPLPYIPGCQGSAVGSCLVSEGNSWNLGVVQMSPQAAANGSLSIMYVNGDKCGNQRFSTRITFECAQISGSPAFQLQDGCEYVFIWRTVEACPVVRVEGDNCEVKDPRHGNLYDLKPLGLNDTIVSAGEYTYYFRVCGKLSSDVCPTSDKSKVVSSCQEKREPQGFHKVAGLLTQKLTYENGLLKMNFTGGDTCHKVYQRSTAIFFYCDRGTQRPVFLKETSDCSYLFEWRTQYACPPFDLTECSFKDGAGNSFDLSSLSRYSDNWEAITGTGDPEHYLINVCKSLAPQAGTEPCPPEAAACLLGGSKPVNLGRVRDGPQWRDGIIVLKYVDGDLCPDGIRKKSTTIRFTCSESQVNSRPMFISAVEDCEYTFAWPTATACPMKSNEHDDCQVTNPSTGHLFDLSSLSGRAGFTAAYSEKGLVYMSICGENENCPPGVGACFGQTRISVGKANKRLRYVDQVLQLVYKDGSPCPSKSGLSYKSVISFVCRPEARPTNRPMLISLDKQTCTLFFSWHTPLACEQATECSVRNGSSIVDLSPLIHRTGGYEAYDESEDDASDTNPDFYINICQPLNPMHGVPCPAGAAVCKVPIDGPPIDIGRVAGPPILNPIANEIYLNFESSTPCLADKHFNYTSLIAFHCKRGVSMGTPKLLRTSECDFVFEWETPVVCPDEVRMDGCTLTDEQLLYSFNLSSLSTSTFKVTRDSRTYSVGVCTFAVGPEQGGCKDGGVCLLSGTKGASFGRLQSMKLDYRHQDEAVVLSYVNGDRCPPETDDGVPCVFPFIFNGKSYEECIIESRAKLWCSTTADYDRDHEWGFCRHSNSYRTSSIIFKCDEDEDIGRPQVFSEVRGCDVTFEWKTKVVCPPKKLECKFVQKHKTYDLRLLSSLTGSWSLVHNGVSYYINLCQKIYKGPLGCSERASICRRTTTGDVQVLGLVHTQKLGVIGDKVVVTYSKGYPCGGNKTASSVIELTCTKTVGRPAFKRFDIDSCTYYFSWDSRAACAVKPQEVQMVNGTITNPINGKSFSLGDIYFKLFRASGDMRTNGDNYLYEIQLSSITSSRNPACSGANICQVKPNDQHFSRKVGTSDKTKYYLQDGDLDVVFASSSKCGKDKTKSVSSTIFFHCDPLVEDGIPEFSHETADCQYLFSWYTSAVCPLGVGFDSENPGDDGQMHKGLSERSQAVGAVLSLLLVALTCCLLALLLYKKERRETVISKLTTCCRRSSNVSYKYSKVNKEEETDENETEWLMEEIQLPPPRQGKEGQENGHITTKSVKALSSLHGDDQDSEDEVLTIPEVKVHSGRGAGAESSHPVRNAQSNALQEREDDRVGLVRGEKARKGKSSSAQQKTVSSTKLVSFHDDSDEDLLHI

With `CCCCN1C[C@H](O)[C@@H](O)[C@H](O)[C@H]1CO` [miglustat, (2R,3R,4R,5S)-1-butyl-2-(hydroxymethyl)piperidine-3,4,5-triol, reference compound], in data set [1], the “AUC relative to adult percentiles” value is given as “below the adult 10th percentile” and the “Cmax relative to adult percentiles” value was “within the adult 10th-90th percentile”. The area under the curve (AUC) in data set [1] (AT2221 AUC) lay in the range of 16100 to 24600 ng·h/mL. Moreover, the Cmax in data set [1] (AT2221 Cmax) is 1800 to 3130 ng/mL. Moreover, in data set [2], the “dose proportionality of AUC and Cmax” value is listed as “linear pharmacokinetics”.
In the case of “MYOZYME®: conventional rhGAA product containing alglucosidase alfa”, the “rhGAA that binds to the CIMPR (contains M6P)” value in data set [3] (fraction of total enzyme by GAA activity) came out at 27%. The “rhGAA that did not bind to the CIMPR” value in data set [3] (fraction of total enzyme by GAA activity (FIG. 9A, 9B)) is on record as 73%. Also, the CK in data set [4] (Myozyme 50 mg/kg q2wk) is listed as 2514-2722 U/L. Besides, the CK in data set [4] (Myozyme 60 mg/kg q2wk) is listed as 3143-3625 U/L. In data set [4] (Myozyme 60 mg/kg q2wk, 2 D), this compound returned an LVEF of 70.5% and an LVMI of 26.2 g/m^2. For the same compound, in data set [4] (Myozyme 30 then 40 mg/kg qwk), the CK was determined as 2603 U/L and the Pro-BNP is reported as 401.5 pg/mL. Besides, in data set [4] (setting [8]), the CK is given as 880 U/L, the Glc4 was determined as 41.88 mmol/mol CRE and the Pro-BNP is listed as 10169 pg/mL. Further, the LVMI in data set [4] (age ~1 week, Myozyme double dose 40 mg/kg q2wk, M-mode) is 147 g/m^2. Further, the CK in data set [4] (change to ATB200 20 mg/kg q2w) amounted to 1444 U/L. The “reactions on ERT” value in data set [4] (human, in vivo) was “skin rash, dyspnea, a cough and a pale-like complexion”. For the same compound, the “lysosome size and autophagic buildup compared to vehicle-treated mice” value in data set [5] is listed as “did not show any significant difference”. Also, in data set [6] (20 mg/kg/weekly), the motor function result was “slight motor improvements”. For the same compound, the response to therapy result in data set [6] (fourfold dose of ERT (40 mg/kg/weekly)) was “very poor”. In data set [7] (setting [9]), the CPK is given as 4,728 U/L, the EF was 48%, the LVMI was 118 g/m2 and the uGlc4 came out at 35 mmol/mol crea. In data set [7] (on Myozyme), this compound yielded a CPK of 1877 u/L, an EF of 50% and a uGlc4 of 20.2 mmol/mol crea. The LVMI in data set [7] (on Myozyme since day 5) was found to be 116.6 g/m2. Further, in data set [7] (setting [10]), the BNP was 237 U/L; the EF is on record as 50%; the LVMI came out at 229 g/m2; the “serum CPK, maximum” value is 6,795 U/L. For the same compound, the “uGlc4, maximum” value in data set [7] (setting [10]) worked out at 50 mmol/mol creatinine.
